Experimental data as given in article doi:10.1101/2025.02.11.637513v1 (bioRxiv, 2025).

Columns and labels:
Assay in all cases: tetrapeptide-ACC substrate cleavage kinetics
Type in all cases: biochemical
human caspase-1 = biological target: T1, human caspase-1 (Homo sapiens, UniProt P29466); details: Ac-P4-P3-P2-Asp-ACC substrate, 0.05-500 μM, 2-15 nM enzyme, 37°C, triplicate
T1 sequence (P29466 120-297 limits assumed): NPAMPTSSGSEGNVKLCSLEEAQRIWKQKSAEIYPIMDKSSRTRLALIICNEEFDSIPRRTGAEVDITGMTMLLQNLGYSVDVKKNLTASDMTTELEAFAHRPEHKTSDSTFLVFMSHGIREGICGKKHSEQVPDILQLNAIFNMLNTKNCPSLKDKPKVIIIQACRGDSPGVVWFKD
T1 sequence (P29466 317-404 limits assumed): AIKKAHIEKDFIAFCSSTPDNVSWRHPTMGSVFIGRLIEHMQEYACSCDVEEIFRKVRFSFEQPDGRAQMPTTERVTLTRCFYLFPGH

human caspase-9 = biological target: T2, human caspase-9 (Homo sapiens, UniProt P55211); details: Ac-P4-P3-P2-Asp-ACC substrate, 0.05-500 μM, 20-150 nM enzyme, 37°C, triplicate
T2 sequence (P55211 1-315 limits assumed): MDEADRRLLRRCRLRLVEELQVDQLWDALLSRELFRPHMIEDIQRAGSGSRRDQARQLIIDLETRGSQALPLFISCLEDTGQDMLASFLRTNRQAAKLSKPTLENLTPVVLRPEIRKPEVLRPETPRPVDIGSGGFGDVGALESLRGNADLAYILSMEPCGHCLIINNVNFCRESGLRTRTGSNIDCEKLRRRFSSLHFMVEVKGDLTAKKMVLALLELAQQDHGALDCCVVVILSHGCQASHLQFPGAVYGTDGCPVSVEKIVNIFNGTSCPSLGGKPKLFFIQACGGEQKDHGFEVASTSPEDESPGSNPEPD
T2 sequence (P55211 331-416 limits assumed): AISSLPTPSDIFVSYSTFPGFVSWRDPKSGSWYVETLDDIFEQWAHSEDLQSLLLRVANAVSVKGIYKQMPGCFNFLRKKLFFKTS

human caspase-5 = biological target: T3, human caspase-5 (Homo sapiens, UniProt P51878); details: Ac-P4-P3-P2-Asp-ACC substrate, 0.05-500 μM, 20-250 nM enzyme, 37°C, triplicate
T3 sequence (P51878 137-327 limits assumed): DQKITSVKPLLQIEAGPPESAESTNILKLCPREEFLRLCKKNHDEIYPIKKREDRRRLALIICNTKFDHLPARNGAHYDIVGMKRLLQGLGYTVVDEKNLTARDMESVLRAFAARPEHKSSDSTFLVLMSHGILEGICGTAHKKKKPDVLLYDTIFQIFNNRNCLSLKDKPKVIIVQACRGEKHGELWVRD
T3 sequence (P51878 347-434 limits assumed): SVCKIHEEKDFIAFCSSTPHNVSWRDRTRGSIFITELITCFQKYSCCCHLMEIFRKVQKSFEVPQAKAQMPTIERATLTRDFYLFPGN

human caspase-8 = human caspase-8 (Homo sapiens, UniProt Q14790); details: Ac-P4-P3-P2-Asp-ACC substrate, 0.05-500 μM, 6-42 nM enzyme, 37°C, triplicate
human caspase-4 = biological target: T4, human caspase-4 (Homo sapiens, UniProt P49662); details: Ac-P4-P3-P2-Asp-ACC substrate, 0.05-500 μM, 35-200 nM enzyme, 37°C, triplicate
T4 sequence (P49662 81-270 limits assumed): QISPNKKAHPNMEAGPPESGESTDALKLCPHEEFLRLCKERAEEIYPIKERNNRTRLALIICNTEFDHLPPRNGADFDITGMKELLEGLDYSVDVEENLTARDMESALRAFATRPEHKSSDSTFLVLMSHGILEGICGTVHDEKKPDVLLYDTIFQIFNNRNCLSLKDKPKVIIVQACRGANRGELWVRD
T4 sequence (P49662 290-377 limits assumed): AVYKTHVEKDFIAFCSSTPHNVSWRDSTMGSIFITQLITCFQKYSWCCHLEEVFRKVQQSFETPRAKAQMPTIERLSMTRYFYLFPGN

human caspase-7 = biological target: T5, human caspase-7 (Homo sapiens, UniProt P55210); details: Ac-P4-P3-P2-Asp-ACC substrate, 0.05-500 μM, 40-400 nM enzyme, 37°C, triplicate
T5 sequence (P55210 24-198 limits assumed): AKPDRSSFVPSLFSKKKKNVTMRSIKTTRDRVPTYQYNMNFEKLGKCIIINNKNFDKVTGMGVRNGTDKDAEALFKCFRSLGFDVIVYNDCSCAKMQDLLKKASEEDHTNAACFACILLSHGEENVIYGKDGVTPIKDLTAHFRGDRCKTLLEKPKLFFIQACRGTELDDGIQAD
T5 sequence (P55210 207-303 limits assumed): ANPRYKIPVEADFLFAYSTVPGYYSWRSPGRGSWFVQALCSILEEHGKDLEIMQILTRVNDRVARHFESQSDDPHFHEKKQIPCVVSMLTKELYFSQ

human caspase-3 = biological target: T6, human caspase-3 (Homo sapiens, UniProt P42574); details: Ac-P4-P3-P2-Asp-ACC substrate, 0.05-500 μM, 3-35 nM enzyme, 37°C, triplicate
T6 sequence (P42574 29-175 limits assumed): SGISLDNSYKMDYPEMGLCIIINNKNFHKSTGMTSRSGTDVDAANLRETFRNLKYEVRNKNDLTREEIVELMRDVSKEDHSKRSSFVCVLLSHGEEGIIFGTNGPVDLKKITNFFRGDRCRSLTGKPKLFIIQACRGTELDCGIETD
T6 sequence (P42574 176-277 limits assumed): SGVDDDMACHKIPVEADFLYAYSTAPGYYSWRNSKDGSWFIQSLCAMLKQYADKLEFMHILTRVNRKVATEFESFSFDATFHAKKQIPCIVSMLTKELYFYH

human caspase-8, sequence (Q14790 217-374 limits assumed): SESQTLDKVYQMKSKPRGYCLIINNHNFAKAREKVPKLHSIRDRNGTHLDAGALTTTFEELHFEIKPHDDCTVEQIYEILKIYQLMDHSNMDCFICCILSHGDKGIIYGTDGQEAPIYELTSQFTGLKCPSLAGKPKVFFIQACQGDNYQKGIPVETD
human caspase-8, sequence (Q14790 385-479 limits assumed): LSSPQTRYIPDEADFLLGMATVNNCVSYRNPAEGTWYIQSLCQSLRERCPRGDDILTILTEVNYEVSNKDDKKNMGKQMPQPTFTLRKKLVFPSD

Row | Substance | kcat/KM caspase-1 (human caspase-1) | kcat/KM caspase-9 (human caspase-9) | kcat/KM caspase-5 (human caspase-5) | kcat/KM caspase-8 (human caspase-8) | kcat/KM caspase-4 (human caspase-4) | kcat/KM caspase-7 (human caspase-7) | kcat/KM caspase-3 (human caspase-3)
1 | Asp-Glu-Val-Asp | 280 M⁻¹ s⁻¹ | 280 M⁻¹ s⁻¹ | 180 M⁻¹ s⁻¹ | 73 200 M^-1s^-1 | 260 M⁻¹ s⁻¹ | 85 000 M^-1s^-1 | 
2 | Glu(Ochx)-Bip-His(Bzl)-Asp | < 10 M⁻¹ s⁻¹ | 40 M⁻¹ s⁻¹ | < 10 M⁻¹ s⁻¹ | 110 M⁻¹ s⁻¹ | < 10 M⁻¹ s⁻¹ | 20 M⁻¹ s⁻¹ | < 10 M⁻¹ s⁻¹
3 | Ile-Glu-Thr-Asp | 1 430 M^-1s^-1 | 2 300 M^-1s^-1 | 2 850 M^-1s^-1 | 95 400 M^-1s^-1 | 1 010 M^-1s^-1 | 3 400 M^-1s^-1 | 21 200 M^-1s^-1
4 | Leu-Glu-His-Asp | 97 500 M^-1s^-1 | 12 700 M^-1s^-1 | 21 500 M^-1s^-1 | 186 000 M^-1s^-1 | 8 950 M^-1s^-1 | 730 M⁻¹ s⁻¹ | 12 600 M^-1s^-1
5 | Leu-Glu-Ser-Asp | 20 000 M^-1s^-1 | 3550 M⁻¹ s⁻¹ | 13500 M⁻¹ s⁻¹ | 19 200 M^-1s^-1 | 3 390 M^-1s^-1 | 20 M⁻¹ s⁻¹ | 950 M⁻¹ s⁻¹
6 | Phe(2Cl)-Glu-Pip-Asp |  | 2 300 M^-1s^-1 | 1 830 M^-1s^-1 | 11 430 M^-1s^-1 | 9 760 M^-1s^-1 | 10 730 M^-1s^-1 | 103 000 M^-1s^-1
7 | Phe-Glu-Ala-Asp | 57 100 M^-1s^-1 | 530 M⁻¹ s⁻¹ | 6 720 M^-1s^-1 | 3 890 M^-1s^-1 | 870 M⁻¹ s⁻¹ | 180 M⁻¹ s⁻¹ | 1 550 M^-1s^-1
8 | Phe-Leu-Thr-Asp | 50 000 M^-1s^-1 | 460 M⁻¹ s⁻¹ | 1 190 M^-1s^-1 | 3 050 M^-1s^-1 | 450 M⁻¹ s⁻¹ | 450 M⁻¹ s⁻¹ | 3 490 M^-1s^-1
9 | Pro-Bip-His(Bzl)-Asp | 13 800 M^-1s^-1 | 6 990 M^-1s^-1 | 310 M⁻¹ s⁻¹ | 2 750 M^-1s^-1 | 590 M⁻¹ s⁻¹ | 40 M⁻¹ s⁻¹ | 1 260 M^-1s^-1
10 | Pro-Met-His-Asp | 13 200 M^-1s^-1 | 13 000 M^-1s^-1 | 130 M⁻¹ s⁻¹ | 3 570 M^-1s^-1 | 460 M⁻¹ s⁻¹ | 100 M⁻¹ s⁻¹ | 3 160 M^-1s^-1
11 | Pro-Tyr-His-Asp | 10 900 M^-1s^-1 | 11 080 M^-1s^-1 | 1 110 M^-1s^-1 | 4 490 M^-1s^-1 | 330 M⁻¹ s⁻¹ | 90 M⁻¹ s⁻¹ | 2 110 M^-1s^-1
12 | Thr-Trp-His-Asp | 4 500 M^-1s^-1 | 4 810 M^-1s^-1 | 600 M⁻¹ s⁻¹ | 1 100 M^-1s^-1 | 450 M⁻¹ s⁻¹ | 710 M⁻¹ s⁻¹ | 26 990 M^-1s^-1
13 | Tle-Bpa-His(Bzl)-Asp | 25 300 M^-1s^-1 | 4 210 M^-1s^-1 | 2 650 M^-1s^-1 | 6 400 M^-1s^-1 | 4 390 M^-1s^-1 | 100 M⁻¹ s⁻¹ | 23 360 M^-1s^-1
14 | Tle-hGlu-Thr(Bzl)-Asp | 12 400 M^-1s^-1 | 7 820 M^-1s^-1 | 5 750 M^-1s^-1 | 125 800 M^-1s^-1 | 2 130 M^-1s^-1 | 17 430 M^-1s^-1 | 179 800 M^-1s^-1
15 | Trp(Me)-Dab-Pip-Asp | 176 200 M^-1s^-1 | 120 M⁻¹ s⁻¹ | 3 930 M^-1s^-1 | 150 M⁻¹ s⁻¹ | 4 340 M^-1s^-1 | 20 M⁻¹ s⁻¹ | 740 M⁻¹ s⁻¹
16 | Trp(Me)-Glu-His(Bzl)-Asp | 623 800 M^-1s^-1 | 6 670 M^-1s^-1 | 20 140 M^-1s^-1 | 7 620 M^-1s^-1 | 15 800 M^-1s^-1 | 280 M⁻¹ s⁻¹ | 6 300 M^-1s^-1
17 | Trp-Gln-Pro-Asp | 124 300 M^-1s^-1 | 190 M⁻¹ s⁻¹ | 5 420 M^-1s^-1 | 2 480 M^-1s^-1 | 3 470 M^-1s^-1 | 70 M⁻¹ s⁻¹ | 1 410 M^-1s^-1
18 | Trp-Gln-Val-Asp | 124 800 M^-1s^-1 | 220 M⁻¹ s⁻¹ | 5 100 M^-1s^-1 | 3 870 M^-1s^-1 | 4 300 M^-1s^-1 | 100 M⁻¹ s⁻¹ | 12 140 M^-1s^-1
19 | Tyr-Gln-2Aoc-Asp |  | 310 M⁻¹ s⁻¹ | 2 860 M^-1s^-1 | 4 970 M^-1s^-1 | 1 100 M^-1s^-1 | 190 M⁻¹ s⁻¹ | 2 580 M^-1s^-1
20 | Val-Tyr(2,6Cl2Bzl)-His-Asp | < 10 M⁻¹ s⁻¹ | 480 M⁻¹ s⁻¹ |  | 750 M⁻¹ s⁻¹ | 100 M⁻¹ s⁻¹ | 80 M⁻¹ s⁻¹ | 3 400 M^-1s^-1
